The text below walks through data of patent US8134013B2, “Amide compound and thrombopoietin receptor activator” (Nissan Chemical Industries, Ltd., priority 2004, dated 2012).

Test [1] addresses T1, human thrombopoietin receptor (c-mpl) (Homo sapiens, UniProt P40238).
T1 construct: expressed in transfected cells
T1 sequence (P40238 26-635): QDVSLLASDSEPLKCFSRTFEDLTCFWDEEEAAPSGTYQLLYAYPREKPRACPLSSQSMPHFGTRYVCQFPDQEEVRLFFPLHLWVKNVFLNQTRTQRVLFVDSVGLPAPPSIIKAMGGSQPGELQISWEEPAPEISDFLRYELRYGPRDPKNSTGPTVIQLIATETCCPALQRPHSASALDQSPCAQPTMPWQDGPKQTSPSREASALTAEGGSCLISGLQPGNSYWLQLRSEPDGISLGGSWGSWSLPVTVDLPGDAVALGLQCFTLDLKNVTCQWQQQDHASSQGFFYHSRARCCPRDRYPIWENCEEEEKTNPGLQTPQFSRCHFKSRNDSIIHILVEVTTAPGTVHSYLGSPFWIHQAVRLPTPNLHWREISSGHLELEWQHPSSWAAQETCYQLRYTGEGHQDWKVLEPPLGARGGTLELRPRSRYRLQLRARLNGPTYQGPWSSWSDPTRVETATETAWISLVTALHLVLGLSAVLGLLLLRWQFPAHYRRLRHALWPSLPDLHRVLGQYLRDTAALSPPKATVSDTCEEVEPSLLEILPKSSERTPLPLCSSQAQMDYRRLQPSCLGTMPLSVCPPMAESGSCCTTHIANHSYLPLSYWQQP
The experiment in a line: Stimulation of proliferation of thrombopoietin-dependent cell line UT7/EPO-mpl (WST-8). In kind it is cell-based. Particulars: for EC50: human leukemic cell line UT-7/EPO-mpl, 4 days incubation, relative to 10 ng/mL TPO, read-out: EC50 (concentration that yields a growth rate corresponding to 50% of the growth observed in the presence of 10 ng/mL TPO) (converted). Here is the method:
The response of thrombopoietin receptor to the compound of Synthetic Example 2 of the present invention was assayed using a human leukemic cell line, UT7/EPO-mpl.
(§1) UT7/EPO-mpl is a stable transformed cell line obtained by introducing into human leukemic cell line UT7/EPO a vector that induces expression of human thrombopoietin receptor (c-mpl) under control of cytomegalovirus immediate-early promoter by the method of Takatoku et al. (J. Biol. Chem., 272:7259-7263 (1997)). […] These two cell lines were subcultured in IMDM (GIBCO) containing 10% fetal bovine serum (Thermo Electron or BioWest) using a CO2 incubator (5% CO2, 37° C.).
The subcultured cells described above were washed twice with PBS and suspended in IMDM containing 10% fetal bovine serum at a cell density of 6×10^4 cells/ml. The cell suspension was transferred to a 96-well tissue culture plate (CORNING) in 100-μl aliquots. Then either thrombopoietin (Pepro Tech EC, or the compound of Synthetic Example 2 dissolved in dimethyl sulfoxide was diluted 83-fold with IMDM containing 10% fetal bovine serum and added to the aforementioned cell suspension in 20-μl aliquots. The cell suspension was incubated in a CO2 incubator (5% CO2, 37° C.) for 4 days. Cell proliferation was assayed using WST-8 reagent (Kishida Chemical Co., Ltd.) according to instructions by the manufacturer. A 10-μl aliquot of 5 mM WST-8 reagent solution was added to each well of the tissue culture plate, and the plate was incubated at 37° C. for 4 hours. The formazan pigment generated was detected by measuring the absorbance at 450 nm with a 96-well microplate reader (Nihon Molecular Devices, Spectramax 190).
The compounds of the following Synthetic Examples were tested according to the method of Assay Example 1 to determine the concentration of each compound that yields a growth rate corresponding to 50% of the growth of human leukemic cell line UT-7/EPO-mpl observed in the presence of 10 ng/mL TPO (EC50).
(Tetrazolium dyes change colour on reduction, which living cells bring about.)

The test system of test [2] is UT7/EPO cells. The test can be described thus: Proliferation of mother cell line UT7/EPO expressing no thrombopoietin receptor (WST-8). In kind it is cell-based, human. Particulars: FIG. 2. Here is the method: as §1
The subcultured cells described above were washed twice with PBS and suspended in IMDM containing 10% fetal bovine serum at a cell density of 6×10^4 cells/ml. The cell suspension was transferred to a 96-well tissue culture plate (CORNING) in 100-μl aliquots. […] The formazan pigment generated was detected by measuring the absorbance at 450 nm with a 96-well microplate reader (Nihon Molecular Devices, Spectramax 190).

The target of test [3] is T1, human thrombopoietin receptor (c-mpl). Particulars: property of the cell line as described; cited from earlier work.
Test [4] has as its system UT7/EPO cells. The note with it: property of the cell line as described; cited from earlier work.

`C/C(=N\NC(=O)c1ccc(C(=O)N2CC(O)C(O)C2)s1)c1csc(-c2cccc(Cl)c2)c1O` (stereo not shown) [compound 90]: the EC50 in test [1] was 0.652 nM.

Consider `C/C(=N\NC(=O)c1ccc(C(=O)NCCC(=O)O)s1)c1csc(-c2ccc(Cl)cc2)c1O` [compound 45], for which the EC50 in test [1] is 6.5 nM.

`C/C(=N\NC(=O)c1ccc(C(=O)NCC2CCCO2)s1)c1csc(-c2ccc(Cl)c(Cl)c2)c1O` (stereo not shown) [Synthetic Example 2, 5-{1-[5-(3,4-Dichlorophenyl)-4-hydroxythiophen-3-yl]ethylidenehydrazinocarbonyl}thiophene-2-carboxylic acid(tetrahydrofuran-2-ylmethyl)amide]: the “proliferation of thrombopoietin-responsive UT7/EPO-mpl cells” value in test [1] (FIG. 1, UT7/EPO-mpl cells, 4 days, WST-8 absorbance at 450 nm) was “stimulated”. Further, the “acts on the thrombopoietin receptor selectively as an activator” value in test [1] (conclusion from UT7/EPO-mpl versus UT7/EPO) is recorded as “selectively”. The “effect on proliferation of UT7/EPO, the mother cell line” value with UT7/EPO cells [2] is reported as “no effect”.

Take `COC1CN(C(=O)c2ccc(C(=O)N/N=C(\C)c3csc(-c4ccc(Br)cc4)c3O)s2)CC1OC` (stereo not shown) [compound 84]: the EC50 in test [1] was 5.01 nM.

`C/C(=N\NC(=O)c1ccc(C(=O)NNc2ccccn2)s1)c1csc(-c2ccc(Cl)c(Cl)c2)c1O` [compound 58]: in test [1], the EC50 is 1.56 nM.

Regarding “TPO: Thrombopoietin is a cytokine consisting of 332 amino acids that increases platelet production”, the “proliferation of UT7/EPO-mpl cell line” value in test [3] is “stimulated”. For the same compound, the “response of mother cell line UT7/EPO” value in the test on UT7/EPO cells [4] is listed as “no response”.

Take `C/C(=N\NC(=O)c1ccc(C(=O)NN(C)C)s1)c1csc(-c2ccc(C(C)(C)C)cc2)c1O` [compound 24]: in test [1], the EC50 was 2.27 nM.

Regarding `CC(=O)NC1CCN(C(=O)c2ccc(C(=O)N/N=C(\C)c3csc(-c4ccc(Cl)c(Cl)c4)c3O)s2)C1` (stereo not shown) [compound 5], the EC50 in test [1] is 0.566 nM.

For `C/C(=N\NC(=O)c1ccc(C(=O)NCCC(=O)O)s1)c1csc(-c2ccc(C)c(C)c2)c1O` [compound 65], the EC50 in test [1] was 4.12 nM.

Take `C/C(=N\NC(=O)c1ccc(C(=O)NCCCN2CCOCC2)s1)c1nn(C)c(-c2ccc(C(F)(F)F)cc2)c1O` [compound 49]: the EC50 in test [1] is 2.77 nM.
